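Results reflect a 48-hour exposure of cells in 96-well plates to compound at five concentrations. GI50 = concentration required for 50% inhibition of growth.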 Calls of active or inactive are those of the source. Rule as the data show it: active = GI50 up to about 1.1 µM and inactive = higher. Where a SMILES comes first, the peptide text is derived from it.
Tests used:
Experiment in all cases: DTP human tumour cell line panel, 48 h
KM12 = system: KM12
NCI/ADR-RES = system: NCI/ADR-RES
U-251 = system: U-251
HOP-92 = system: HOP-92
HCC 2998 = system: HCC 2998
IGROV-1 = system: IGROV-1
OVCAR-3 = system: OVCAR-3
HOP-62 = system: HOP-62
HT-29 = system: HT-29
TK-10 = system: TK-10
OVCAR-8 = system: OVCAR-8
MDA-MB-435 = system: MDA-MB-435
SNB-19 = system: SNB-19
EKVX = system: EKVX
HL-60 = system: HL-60
NCI-H460 = system: NCI-H460
HCT-116 = system: HCT-116
BT-549 = system: BT-549
SK-MEL-2 = system: SK-MEL-2
MDA-MB-231 = system: MDA-MB-231

Measured: GI50

CC(C)CC(NC(=O)C(Cc1ccccc1)NC(=O)C(Cc1c[nH]c2ccccc12)NC(=O)CNC(=O)C(N)Cc1ccc(O)cc1)C(=O)O (stereo not given) (H-YGWFL-OH; configuration not given here)
inactive: KM12 24.6 µM | NCI/ADR-RES 67.6 µM | U-251 34.6 µM | HOP-92 14 µM | HCC 2998 34.3 µM | IGROV-1 58.7 µM | OVCAR-3 23.2 µM | HOP-62 46.5 µM | HT-29 30.8 µM | TK-10 78.7 µM | OVCAR-8 46.5 µM | MDA-MB-435 34.9 µM | SNB-19 51.6 µM | EKVX 35.2 µM | HL-60 24.3 µM | NCI-H460 44.4 µM | HCT-116 27.4 µM | BT-549 > 100 µM | SK-MEL-2 81.3 µM | MDA-MB-231 52.1 µM
